Activity data for one compound are collected here from ChEMBL document CHEMBL5543147, “Discovery and Characterization of a Novel Cereblon-Recruiting PRC1 Bridged PROTAC Degrader” (J Med Chem, 2024).

Active and inactive are the calls of the source. The rule behind the calls is not given here.

The subject of test [1] is PC-3M. Description: Induction of PRC1 degradation in human PC-3M cells assessed as reduction of H2AK119ub chromatin mark at 5 uM incubated for 24 hrs by Western blotting analysis. Format: cell-based.
Test [2] concerns PC-3M. The test is described as follows: Antiproliferative activity against human PC-3M cells assessed as inhibition of cell growth at 1 to 10 uM incubated for 5 days by WST-8 assay. Type of test: functional, cell-based. Particulars: dose 1-10 µM, time 5.0 day.
Another test relates to MDA-MB-468. Description: Induction of PRC2 degradation in human MDA-MB-468 cells assessed as reduction of H3K27me3 chromatin mark at 5 uM incubated for 24 hrs by Western blotting analysis. Format: cell-based.

Consider `O=C(CNc1cccc2c1C(=O)N(C1CCC(=O)NC1=O)C2=O)NCCCCN1CCN(c2ccc(-c3cnc(NCc4ccco4)n4cnnc34)cc2)CC1` (stereo not drawn), for which the result in the test on PC-3M [1] and with PC-3M [2] was Active. The result in the test with MDA-MB-468 was inactive.
